Each structure is given as a SMILES string.

The test system of the first test is AGS cells (KRAS^G12D). The test can be described thus: Detection of cell proliferation in vitro by MTT/MTS method (cell activity experiment). In kind it is cell-based. Particulars: Homo sapiens, AGS, 72 h, AGS cells; MTT/MTS; 3 days of drug treatment; read-out: AGS IC50. In outline:
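KRAS G12D AGS cells seeded at 1000 per well, compound added 24 h later, 0.5% final DMSO. Viability read after 3 days of treatment by MTT (solubilised in DMSO) or MTS, 4 h, absorbance 490 nm. IC50 from dose–response curves versus DMSO control.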
Regarding `Oc1cc(N2CCc3c(nc(OC[C@@]45CCCN4C[C@H](F)C5)nc3N3C[C@H]4CC[C@@H](C3)N4)C2)c2c(F)c(F)ccc2c1` [Example 204, 4-(4-((1R,5S)-3,8-diazabicyclo[3.2.1]octan-3-yl)-2-(((2R,7aS)-2-fluorotetrahydro-1H-pyrrolizin-7a(5H)-yl)methoxy)-5,8-dihydropyrido[3,4-d]pyrimidin-7(6H)-yl)-5,6-difluoronaphthalen-2-ol], the IC50 was 11 nM. As for `Oc1cc(N2CCc3c(nc(OC[C@@]45CCCN4C[C@H](F)C5)nc3N3C[C@H]4CC[C@@H](C3)N4)C2)c2c(F)cccc2c1` [Example 205, 4-(4-((1R,5S)-3,8-diazabicyclo[3.2.1]octan-3-yl)-2-(((2R,7aS)-2-fluorotetrahydro-1H-pyrrolizin-7a(5H)-yl)methoxy)-5,8-dihydropyrido[3,4-d]pyrimidin-7(6H)-yl)-5-fluoronaphthalen-2-ol], the IC50 was 18 nM. The same measure, in the same setting: as for `C#Cc1cccc2cc(O)cc(N3CCc4c(nc(OC[C@@]56CCCN5C[C@H](F)C6)nc4N4C[C@H]5CC[C@@H](C4)N5)C3)c12` [Example 206, 4-(4-((1R,5S)-3,8-diazabicyclo[3.2.1]octan-3-yl)-2-(((2R,7aS)-2-fluorotetrahydro-1H-pyrrolizin-7a(5H)-yl)methoxy)-5,8-dihydropyrido[3,4-d]pyrimidin-7(6H)-yl)-5-ethynylnaphthalen-2-ol], the figure is 20 nM; as for `CCc1cccc2cc(O)cc(N3CCc4c(nc(OC[C@@]56CCCN5C[C@H](F)C6)nc4N4C[C@H]5CC[C@@H](C4)N5)C3)c12` [Example 207, 4-(4-((1R,5S)-3,8-diazabicyclo[3.2.1]octan-3-yl)-2-(((2R,7aS)-2-fluorotetrahydro-1H-pyrrolizin-7a(5H)-yl)methoxy)-5,8-dihydropyrido[3,4-d]pyrimidin-7(6H)-yl)-5-ethylnaphthalen-2-ol], 25 nM. The same measure, in the same setting: the value for `Oc1cc(N2CCc3c(nc(OC[C@@]45CCCN4C[C@H](F)C5)nc3N3C[C@H]4CC[C@@H](C3)N4)C2)c2c(Cl)c(F)ccc2c1` [Example 208, 4-(4-((1R,5S)-3,8-diazabicyclo[3.2.1]octan-3-yl)-2-(((2R,7aS)-2-fluorotetrahydro-1H-pyrrolizin-7a(5H)-yl)methoxy)-5,8-dihydropyrido[3,4-d]pyrimidin-7(6H)-yl)-5-chloro-6-fluoronaphthalen-2-ol] was 20 nM; that for `C#Cc1c(F)ccc2cc(O)cc(N3CCc4c(nc(OC[C@]56CCCN5[C@@H](COC(=O)N(C)C)CC6)nc4N4C[C@H]5CC[C@@H](C4)N5)C3)c12` [Example 209, ((3R,7aR)-7a-(((4-((1R,5S)-3,8-diazabicyclo[3.2.1]octan-3-yl)-7-(8-ethynyl-7-fluoro-3-hydroxynaphthalen-1-yl)-5,6,7,8-tetrahydropyrido[3,4-d]pyrimidin-2-yl)oxy)methyl)hexahydro-1H-pyrrolizin-3-yl)methyl dimethylcarbamate] was 35 nM. On the same count and under the same terms, the value for `CCc1c(F)ccc2cc(O)cc(N3CCc4c(nc(OC[C@]56CCCN5[C@@H](COC(=O)N(C)C)CC6)nc4N4C[C@H]5CC[C@@H](C4)N5)C3)c12` [Example 210, ((3R,7aR)-7a-(((4-((1R,5S)-3,8-diazabicyclo[3.2.1]octan-3-yl)-7-(8-ethyl-7-fluoro-3-hydroxynaphthalen-1-yl)-5,6,7,8-tetrahydropyrido[3,4-d]pyrimidin-2-yl)oxy)methyl)hexahydro-1H-pyrrolizin-3-yl)methyl dimethylcarbamate] was 65 nM; that for `C#Cc1c(F)ccc2cccc(N3CCc4c(nc(OC[C@@]56CCCN5C[C@H](COC(=O)N(C)C)C6)nc4N4C[C@H]5CC[C@@H](C4)N5)C3)c12` [Example 211, ((2R,7aS)-7a-(((4-((1R,5S)-3,8-diazabicyclo[3.2.1]octan-3-yl)-7-(8-ethynyl-7-fluoronaphthalen-1-yl)-5,6,7,8-tetrahydropyrido[3,4-d]pyrimidin-2-yl)oxy)methyl)hexahydro-1H-pyrrolizin-2-yl)methyl dimethylcarbamate] was 55 nM; that for `C#Cc1c(F)ccc2cc(O)cc(-c3ccc4c(N5CC(C(C)(C)N)C5)nc(OC[C@@]56CCCN5C[C@H](F)C6)nc4c3F)c12` [Example 212, 4-(4-(3-(2-aminopropan-2-yl)azetidin-1-yl)-8-fluoro-2-(((2R,7aS)-2-fluorotetrahydro-1H-pyrrolizin-7a(5H)-yl)methoxy)quinazolin-7-yl)-5-ethynyl-6-fluoronaphthalen-2-ol] was 419 nM.

Consider `C#Cc1c(F)ccc2cc(O)cc(-c3ccc4c(N5CC(C(C)N)C5)nc(OC[C@@]56CCCN5C[C@H](F)C6)nc4c3F)c12` (stereo partly drawn) [Example 213, 4-(4-(3-(1-aminoethyl)azetidin-1-yl)-8-fluoro-2-(((2R,7aS)-2-fluorotetrahydro-1H-pyrrolizin-7a(5H)-yl)methoxy)quinazolin-7-yl)-5-ethynyl-6-fluoronaphthalen-2-ol], for which the IC50 was more than 2500 nM. Still for that read-out and setting: the value for `C#Cc1c(F)ccc2cc(O)cc(-c3ccc4c(N5CC6CCC(N6)C5=O)nc(OC[C@@]56CCCN5C[C@H](F)C6)nc4c3F)c12` (stereo partly drawn) [Example 214, 3-(7-(8-ethynyl-7-fluoro-3-hydroxynaphthalen-1-yl)-8-fluoro-2-(((2R,7aS)-2-fluorotetrahydro-1H-pyrrolizin-7a(5H)-yl)methoxy)quinazolin-4-yl)-3,8-diazabicyclo[3.2.1]octan-2-one] was more than 10000 nM; that for `C#Cc1c(F)ccc2cc(O)cc(-c3ccc4c(N5CC(C(N)=O)C5)nc(OC[C@@]56CCCN5C[C@H](F)C6)nc4c3F)c12` [Example 215, 1-(7-(8-ethynyl-7-fluoro-3-hydroxynaphthalen-1-yl)-8-fluoro-2-(((2R,7aS)-2-fluorotetrahydro-1H-pyrrolizin-7a(5H)-yl)methoxy)quinazolin-4-yl)azetidine-3-carboxamide] was more than 2500 nM; that for `C#Cc1c(F)ccc2cc(O)cc(-c3ccc4c(N5CC6(CCN6)C5)nc(OC[C@@]56CCCN5C[C@H](F)C6)nc4c3F)c12` [Example 216, 5-ethynyl-6-fluoro-4-(8-fluoro-2-(((2R,7aS)-2-fluorotetrahydro-1H-pyrrolizin-7a(5H)-yl)methoxy)-4-(1,6-diazaspiro[3.3]heptan-6-yl)quinazolin-7-yl)naphthalen-2-ol] was 3480 nM. Same read-out and setting: as for `C#Cc1c(F)ccc2cc(O)cc(-c3ccc4c(N5CC(C)(N)C5)nc(OC[C@@]56CCCN5C[C@H](F)C6)nc4c3F)c12` [Example 217, 4-(4-(3-amino-3-methylazetidin-1-yl)-8-fluoro-2-(((2R,7aS)-2-fluorotetrahydro-1H-pyrrolizin-7a(5H)-yl)methoxy)quinazolin-7-yl)-5-ethynyl-6-fluoronaphthalen-2-ol], the figure is 835 nM. Turning to `C#Cc1c(F)ccc2cc(O)cc(-c3ccc4c(N5CC(C)(NC)C5)nc(OC[C@@]56CCCN5C[C@H](F)C6)nc4c3F)c12` [Example 218, 5-ethynyl-6-fluoro-4-(8-fluoro-2-(((2R,7aS)-2-fluorotetrahydro-1H-pyrrolizin-7a(5H)-yl)methoxy)-4-(3-methyl-3-(methylamino)azetidin-1-yl)quinazolin-7-yl)naphthalen-2-ol], the IC50 is 980 nM. Still for that read-out and setting: as for `C#Cc1c(F)ccc2cc(O)cc(-c3ncc4c(N(CCNC)C5CC5)nc(OC[C@@]56CCCN5C[C@H](F)C6)nc4c3F)c12` [Example 219, 4-(4-(cyclopropyl(2-(methyl-amino)ethyl)amino)-8-fluoro-2-(((2R,7aS)-2-fluorotetrahydro-1H-pyrrolizin-7a(5H)-yl)methoxy)pyrido[4,3-d]pyrimidin-7-yl)-5-ethynyl-6-fluoronaphthalen-2-ol], the figure is more than 2500 nM; as for `CC1CCc2cc(O)cc(-c3ncc4c(N5C[C@H]6CC[C@@H](C5)N6)nc(OC[C@@]56CCCN5C[C@H](F)C6)nc4c3F)c21` (stereo partly drawn) [Example 223, 7-(4-((1R,5S)-3,8-diazabicyclo[3.2.1]octan-3-yl)-8-fluoro-2-(((2R,7aS)-2-fluorotetrahydro-1H-pyrrolizin-7a(5H)-yl)methoxy)pyrido[4,3-d]pyrimidin-7-yl)-1-methyl-2,3-dihydro-1H-inden-5-ol], 14 nM.

As for `CC1CCCc2cc(O)cc(-c3ncc4c(N5C[C@H]6CC[C@@H](C5)N6)nc(OC[C@@]56CCCN5C[C@H](F)C6)nc4c3F)c21` (stereo partly drawn) [Example 224, 4-(4-((1R,5S)-3,8-diazabicyclo[3.2.1]octan-3-yl)-8-fluoro-2-(((2R,7aS)-2-fluorotetrahydro-1H-pyrrolizin-7a(5H)-yl)methoxy)pyrido[4,3-d]pyrimidin-7-yl)-5-methyl-5,6,7,8-tetrahydronaphthalen-2-ol], the IC50 was found to be 4.8 nM. Same read-out and setting: the value for `CCC1CCCc2cc(O)cc(-c3ncc4c(N5C[C@H]6CC[C@@H](C5)N6)nc(OC[C@@]56CCCN5C[C@H](F)C6)nc4c3F)c21` (stereo partly drawn) [Example 227, 4-(4-((1R,5S)-3,8-diazabicyclo[3.2.1]octan-3-yl)-8-fluoro-2-(((2R,7aS)-2-fluorotetrahydro-1H-pyrrolizin-7a(5H)-yl)methoxy)pyrido[4,3-d]pyrimidin-7-yl)-5-ethyl-5,6,7,8-tetrahydronaphthalen-2-ol] was 5 nM.

Take `CCCC1CCc2cc(O)cc(-c3ncc4c(N5C[C@H]6CC[C@@H](C5)N6)nc(OC[C@@]56CCCN5C[C@H](F)C6)nc4c3F)c21` (stereo partly drawn) [Example 242, 7-(4-((1R,5S)-3,8-diazabicyclo[3.2.1]octan-3-yl)-8-fluoro-2-(((2R,7aS)-2-fluorotetrahydro-1H-pyrrolizin-7a(5H)-yl)methoxy)pyrido[4,3-d]pyrimidin-7-yl)-1-propyl-2,3-dihydro-1H-inden-5-ol]: the IC50 turned out to be 34 nM.

The same test, now with this note: Homo sapiens, AGS, 72 h, read-out: AGS IC50.
Turning to `CCC1CCc2cc(O)cc(-c3ncc4c(N5C[C@H]6CC[C@@H](C5)N6)nc(OC[C@@]56CCCN5C[C@H](F)C6)nc4c3F)c21` (stereo partly drawn) [Example 220, 7-(4-((1R,5S)-3,8-diazabicyclo[3.2.1]octan-3-yl)-8-fluoro-2-(((2R,7aS)-2-fluorotetrahydro-1H-pyrrolizin-7a(5H)-yl)methoxy)pyrido[4,3-d]pyrimidin-7-yl)-1-ethyl-2,3-dihydro-1H-inden-5-ol], the IC50 was found to be 5 nM.

A word on the IC50: it is the concentration at which inhibition is half-maximal.

Source of the values: patent US20240300980A1, “HETEROCYCLIC COMPOUNDS AS KRAS INHIBITOR, AND PREPARATION THEREFOR AND USE THEREOF IN TREATMENT” (SHANGHAI KECHOW PHARMA, INC., priority 2021, published 2024).
